Results from PubChem BioAssay AID248 (DTP/NCI, 2004).
Several values for one entry are separate records, joined by “and”; a condition that tells them apart may be missing. Equal values may be shown once. Toxic doses and inconclusive results are not listed. Cut-off read from the data, not from the text of the source: active = T/C of 150% or more; inactive = T/C below 125%.

Tested on: L1210 leukemia ip in BDF1 mice, survival T/C
Experiment: NCI In Vivo Anticancer Drug Screen. Data for tumor model L1210 Leukemia (intraperitoneal) in B6D2F1 (BDF1) mice
Conditions: endpoint: mean survival time, higher = longer survival
Method in brief: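 Tumor cells were implanted, animals were treated, and survival was followed. The result divides the treated measurement by the vehicle-control measurement.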

[1] = dose: 100.0 mg/kg/injection, schedule: Q04DX003 (ip), vehicle: saline with Tween-80
[2] = dose: 200.0 mg/kg/injection, schedule: Q04DX003 (ip), vehicle: saline with Tween-80
[3] = dose: 400.0 mg/kg/injection, schedule: Q04DX003 (ip), vehicle: saline with Tween-80
[4] = dose: 100.0 mg/kg/injection, schedule: Q01DX001 (ip), vehicle: saline
[5] = dose: 200.0 mg/kg/injection, schedule: Q01DX001 (ip), vehicle: saline
[6] = dose: 400.0 mg/kg/injection, schedule: Q01DX001 (ip), vehicle: saline
[7] = dose: 100.0 mg/kg/injection, schedule: Q04DX003 (ip), vehicle: saline
[8] = dose: 200.0 mg/kg/injection, schedule: Q04DX003 (ip), vehicle: saline
[9] = dose: 400.0 mg/kg/injection, schedule: Q04DX003 (ip), vehicle: saline
[10] = dose: 100.0 mg/kg/injection, schedule: Q01DX009 (ip), vehicle: Klucel (hydroxypropylcellulose) (HPC)
[11] = dose: 200.0 mg/kg/injection, schedule: Q01DX009 (ip), vehicle: Klucel (hydroxypropylcellulose) (HPC)
[12] = dose: 400.0 mg/kg/injection, schedule: Q01DX009 (ip), vehicle: Klucel (hydroxypropylcellulose) (HPC)
[13] = dose: 100.0 mg/kg/injection, schedule: Q01DX009 (ip), vehicle: saline with Tween-80
[14] = dose: 25.0 mg/kg/injection, schedule: Q04DX003 (ip), vehicle: saline

Measured: T/C

CCS(=O)(=O)CS(=O)(=O)C(C)(C)C
inactive: dose: 100.0 mg/kg/injection, schedule: Q01DX001 (ip), vehicle: Klucel (hydroxypropylcellulose) (HPC) 98 % of control | dose: 200.0 mg/kg/injection, schedule: Q01DX001 (ip), vehicle: Klucel (hydroxypropylcellulose) (HPC) 91 % of control | dose: 400.0 mg/kg/injection, schedule: Q01DX001 (ip), vehicle: Klucel (hydroxypropylcellulose) (HPC) 94 % of control

CCCCC(=O)N/N=C/c1ccc(Cl)c(Cl)c1
inactive: dose: 100.0 mg/kg/injection, schedule: Q01DX001 (ip), vehicle: carboxymethylcellulose (CMC) 88 % of control | dose: 200.0 mg/kg/injection, schedule: Q01DX001 (ip), vehicle: carboxymethylcellulose (CMC) 110 % of control | dose: 400.0 mg/kg/injection, schedule: Q01DX001 (ip), vehicle: carboxymethylcellulose (CMC) 91 % of control

CCC1(C)CC(=O)NC(=O)C1
inactive: dose: 0.9 mg/kg/injection, schedule: Q01DX009 (ip), vehicle: saline 98 % of control | dose: 1.87 mg/kg/injection, schedule: Q01DX009 (ip), vehicle: saline 108 % of control | dose: 3.75 mg/kg/injection, schedule: Q01DX009 (ip), vehicle: saline 104 % of control | dose: 3.75 mg/kg/injection, schedule: Q04DX003 (ip), vehicle: saline 106 % of control | dose: 5.0 mg/kg/injection, schedule: Q04DX003 (ip), vehicle: saline with Tween-80 101 % of control | dose: 7.5 mg/kg/injection, schedule: Q01DX009 (ip), vehicle: saline 106 % of control | dose: 7.5 mg/kg/injection, schedule: Q04DX003 (ip), vehicle: saline 92 % of control | dose: 10.0 mg/kg/injection, schedule: Q04DX003 (ip), vehicle: saline with Tween-80 97 % of control | dose: 15.0 mg/kg/injection, schedule: Q01DX009 (ip), vehicle: saline 100 % of control | dose: 15.0 mg/kg/injection, schedule: Q04DX003 (ip), vehicle: saline 95 % of control

CC(=O)OC1C(OC(C)=O)C(OS(=O)(=O)c2ccc(C)cc2)C(OC(C)=O)C(OS(=O)(=O)c2ccc(C)cc2)C1OC(C)=O (stereo not drawn)
inactive: [1] 97 % of control | [2] 92 % of control | [3] 95 % of control

CC(CCN)(CCN)[N+](=O)[O-]
inactive: [4] 98 % of control | [5] 92 % of control | [6] 93 % of control

O=C1c2cc(O)c(O)cc2O[C@H](c2ccc(O)c(O)c2)[C@H]1O
inactive: [7] 106 % of control | [8] 100 % of control | [9] 104 % of control

Cc1cc(=O)oc2c(CN3CCCCC3)c(O)ccc12
inactive: dose: 5.0 mg/kg/injection, schedule: Q01DX001 (ip), vehicle: carboxymethylcellulose (CMC) 93 % of control | dose: 10.0 mg/kg/injection, schedule: Q01DX001 (ip), vehicle: carboxymethylcellulose (CMC) 90 % of control | dose: 20.0 mg/kg/injection, schedule: Q01DX001 (ip), vehicle: carboxymethylcellulose (CMC) 104 % of control

O=C(Nc1ccc2ccccc2c1)c1ccc(Cl)c(Cl)c1
inactive: [10] 95 % of control | [11] 103 % of control | [12] 103 % of control

CC1(C)N=C(N)N=C(N)N1c1ccc(OCCCc2ccccc2)c(N)c1
inactive: dose: 25.0 mg/kg/injection, schedule: Q04DX003 (ip), vehicle: saline with Tween-80 100 % of control | dose: 50.0 mg/kg/injection, schedule: Q04DX003 (ip), vehicle: saline with Tween-80 96 % of control

CN(C)N=Nc1ccccc1I
inactive: [10] 103 % of control | [11] 104 % of control and 105 % of control | [12] 113 % of control and 116 % of control | dose: 600.0 mg/kg/injection, schedule: Q01DX009 (ip), vehicle: Klucel (hydroxypropylcellulose) (HPC) 115 % of control

COc1cccc(OC)c1C1(O)c2c(OC)cccc2Oc2cccc(OC)c21
inactive: [13] 93 % of control | dose: 200.0 mg/kg/injection, schedule: Q01DX009 (ip), vehicle: saline with Tween-80 90 % of control | dose: 400.0 mg/kg/injection, schedule: Q01DX009 (ip), vehicle: saline with Tween-80 90 % of control

CCOC(=O)C/C(=C/c1ccco1)C(=O)OCC
inactive: [4] 86 % of control | [7] 89 % of control | [5] 92 % of control | [8] 96 % of control | [6] 89 % of control | [9] 89 % of control

Cc1ccc(Cl)cc1NC(=O)c1ccc([N+](=O)[O-])cc1
inactive: dose: 50.0 mg/kg/injection, schedule: Q01DX009 (ip), vehicle: saline with Tween-80 91 % of control | [13] 86 % of control

CN=C1CN(O)C(c2ccccc2)=c2cc(Cl)ccc2=N1
inactive: dose: 25.0 mg/kg/injection, schedule: Q01DX009 (ip), vehicle: acetone 96 % of control | [14] 97 % of control | dose: 50.0 mg/kg/injection, schedule: Q01DX009 (ip), vehicle: acetone 90 % of control | dose: 50.0 mg/kg/injection, schedule: Q04DX003 (ip), vehicle: saline 97 % of control | [4] 92 % of control | dose: 100.0 mg/kg/injection, schedule: Q01DX009 (ip), vehicle: acetone 102 % of control | [7] 92 % of control | [5] 96 % of control | dose: 200.0 mg/kg/injection, schedule: Q01DX009 (ip), vehicle: acetone 97 % of control | [8] 97 % of control

C#CCN(C)CCO
inactive: [1] 97 % of control | [2] 106 % of control | [3] 100 % of control

COC(=O)C(CSCc1ccccc1)NC(=O)OCc1ccccc1 (stereo not drawn)
inactive: [10] 96 % of control | dose: 100.0 mg/kg/injection, schedule: Q04DX003 (ip), vehicle: Klucel (hydroxypropylcellulose) (HPC) 90 % of control | [11] 94 % of control | dose: 200.0 mg/kg/injection, schedule: Q04DX003 (ip), vehicle: Klucel (hydroxypropylcellulose) (HPC) 87 % of control | [12] 94 % of control

Cc1cc(N=NC(=N)N)c(C(C)C)cc1NN=C(N)N
inactive: dose: 60.0 mg/kg/injection, schedule: Q01DX Z (oral), vehicle: carboxymethylcellulose (CMC) 106 % of control | dose: 120.0 mg/kg/injection, schedule: Q01DX Z (oral), vehicle: carboxymethylcellulose (CMC) 100 % of control | dose: 480.0 mg/kg/injection, schedule: Q01DX Z (oral), vehicle: carboxymethylcellulose (CMC) 102 % of control

O=C(Nc1ccccc1F)OCCOc1ccc([N+](=O)[O-])cc1
inactive: [10] 96 % of control | [11] 100 % of control | [12] 94 % of control

O=C(O)CC1C=CCC1 (stereo not drawn)
inactive: [14] 90 % of control
